Measurements: patent US20220273752A1, “MODULATION OF DENDRITIC CELL FUNCTION BY THE PHOSPHOLIPID MESSENGER LPA” (Cornell University, priority 2019, published 2022)

Tests used:
[1] = system: PERK in human monocyte-derived DCs; experiment: RT-qPCR gene expression in human monocyte-derived DCs treated with LPA and TM, with or without PERK inhibitor; type: cell-based; conditions: LPA 100 μM and TM 1 μg/ml, 6 hours; RT-qPCR relative to ACTB
Method: Monocyte-derived DCs were generated from peripheral human blood and cells were treated for 6 hours with LPA (100 μM), TM (1 μg/ml) or the combination of both, in the presence or absence of the PERK inhibitor AMG PERK 44. Gene expression was subsequently determined by RT-qPCR relative to endogenous ACTB in each sample. FIG. 6A graphically illustrates expression of the PERK-dependent ER stress response gene DDIT3 in monocyte-derived DCs with or without treatment by AMG PERK 44. FIG. 6B graphically illustrates expression of IL6 in monocyte-derived DCs with or without treatment by AMG PERK 44. FIG. 6C graphically illustrates expression of IL1B in monocyte-derived DCs with or without treatment by AMG PERK 44. FIG. 6D graphically illustrates expression of PTGS2 in monocyte-derived DCs with or without treatment by AMG PERK 44. FIG. 6E graphically illustrates expression of VEGFA in monocyte-derived DCs with or without treatment by AMG PERK 44.
(§1) The structure of AMG PERK 44 is shown below as a HCl salt.

PERK in murine DCs = experiment: PERK inhibitor in murine DCs in vitro (data not shown); type: cell-based
Text: as §1

[2] = system: ovarian cancer cells that overexpress VEGFA and Defb29 (ID8-Defb29/Vegf-A); experiment: Anti-tumor efficacy (host survival) in mice bearing ID8-Defb29/Vegf-A ovarian cancer; type: in vivo, mouse; conditions: mice bearing metastatic ovarian cancer
Text: FIG. 9A is a schematic diagram illustrating the treatment of female mice that were intraperitoneally injected with ID8 ovarian cancer cells overexpressing VEGFA and Def29b. FIG. 9B graphically illustrates host survival as monitored over time of the mice treated as described for FIG. 9A. ***P<0.001. ****P<0.0001.
FIG. 20A schematically illustrates the experimental scheme and treatment regimen employed.
FIG. 20B graphically illustrates the percent survival for the groups described in FIG. 20A. […] FIG. 20C graphically illustrates ascites accumulation over time of the groups of animals treated as described in FIG. 20A. **P<0.001, ***P<0.001. ****P<0.0001.
Consequently, production of this bioactive lipid mediator limits the effects of immunotherapies such as Poly-(I:C) treatment, and of novel chemotherapeutic interventions such as PARP inhibitors. Targeting the autotaxin-LPA pathway may therefore be beneficial to control ovarian cancer progression and unleash protective anti-tumor immune responses that extend host survival. […] Therefore, our findings indicate that autotaxin inhibitors could be repurposed to maximize the efficacy of PARP inhibitors and awaken protective type-I IFN responses in ovarian cancer patients.
Methods similar to those described above were used to evaluate the anti-tumor effects of various autotaxin and LPA receptor inhibitors. The inhibitors were administered to mice that had received ovarian cancer cells that overexpress VEGFA and Defb29 (ID8-Defb29/Vegf-A).

[3] = system: tumor-associated dendritic cells (tDCs); experiment: Ex vivo treatment of ovarian cancer ascites, gene expression in tumor-associated DCs; type: cell-based, mouse; conditions: ascites incubated ex vivo with 200 nM or 1000 nM, DCs isolated 24 h later; relative to Actb
Text: FIG. 7A-7B illustrate that conditional PERK deletion in CD11c^+ immune cells (Perk^f/f Cd11c-Cre) delays metastatic ovarian cancer progression. FIG. 7A illustrates survival of female mice of the indicated genotypes (n=8/group) that were intraperitoneally challenged with parental ID8 ovarian cancer cells and host survival was monitored over time. *P<0.05. ****P<0.0001. n=8/group. FIG. 7B graphically illustrates survival of female mice of the indicated genotypes (n=8/group) that were intraperitoneally challenged with variant ovarian cancer cells that are highly aggressive and overexpress VEGFA and Defb29 (ID8-Defb29/Vegf-A). Host survival was monitored over time. *P<0.05. ****P<0.0001. n=8/group. FIG. 8A-8D graphically illustrate expression of LPA/ER stress-induced tumorigenic and immunomodulatory genes by tumor-associated dendritic cells (tDCs) present in ovarian cancer ascites can be diminished using a small-molecule inhibitor targeting autotaxin.

[4] = system: ID8-based ovarian cancer cells (Enpp2 sgRNA or control sgRNA); experiment: Host survival of mice bearing autotaxin-deficient (Enpp2 sgRNA) or control sgRNA ID8-based ovarian cancer; type: in vivo, mouse; conditions: for host survival in mice bearing autotaxin-deficient ovarian cancer: Enpp2 sgRNA tumors, compared with all other experimental groups
Text: FIG. 17A-17C illustrate host survival and disease progression in mice bearing autotaxin-deficient ovarian cancer (Enpp2 sgRNA) and treated with the TLR3 agonist Poly(1:C). FIG. 17A schematically illustrates the experimental scheme and treatment regimen. FIG. 17B graphically illustrates the survival of the indicated groups when treated as described in FIG. 17A. […] FIG. 17C graphically illustrates ascites accumulation over time of the groups of animals treated as described in FIG. 17A. ****P<0.0001.
FIG. 18A-18C illustrate that blockade of the type-I IFN receptor 1 (IFNAR1) abrogates the therapeutic effects Poly-(I:C) in mice bearing autotaxin-deficient ovarian tumors. FIG. 18A schematically illustrates the experimental scheme and treatment regimen employed. FIG. 18B graphically illustrates the percent survival for the groups described in FIG. 18A. […] FIG. 18C graphically illustrates ascites accumulation over time of the groups of animals treated as described in FIG. 18A. ***P<0.0005, ****P<0.0001.
FIG. 19A-19C illustrate the effects of the PARP inhibitor Talazoparib in mice bearing autotaxin-deficient ovarian cancer cells. FIG. 19A schematically illustrates the experimental scheme and treatment regimen employed. FIG. 19B graphically illustrates the percent survival for the groups described in FIG. 19A. […] FIG. 19C graphically illustrates ascites accumulation over time of the groups of animals treated as described in FIG. 19A. **P<0.001, ***P<0.0005, ****P<0.0001.
To define the in vivo relevance of the findings related to type-I IFN expression, the inventors abrogated the gene encoding the LPA-generating enzyme autotaxin (Enpp2) in ID8-based ovarian cancer cells lines using CRISPR-Cas9.
Based on these key findings, experiments were then performed to determine whether treatment with the TLR3 agonist Poly(I:C), which can enhance type-I IFN immune responses, could increase survival in mice bearing autotaxin-deficient ovarian tumors.
To determine whether these effects are really mediated by enhanced type-I IFN signaling, mice were treated with anti-IFNAR1 blocking antibodies. […]

## Cc1ccc2cc(-c3c(C)ccc(C(=O)c4c(-c5ccccc5)n(C)n(-c5ccccc5)c4=O)c3N)ccc2n1 [AMG PERK 44]
[1]
  induction of pro-tumoral factors (IL6, IL1B, PTGS2, VEGFA) in LPA-exposed human DCs undergoing ER stress: prevents induction of pro-tumoral factors
PERK in murine DCs
  effect compared with PERK deletion in murine DCs: recapitulate the effects of PERK deletion

## CCc1nc2c(C)cc(N3CCN(CC(=O)N4CC(O)C4)CC3)cn2c1N(C)c1nc(-c2ccc(F)cc2)c(C#N)s1 [GLPG1690]
[2]; single agent
  host survival, single treatment: modestly extended host survival
[2]; with PARP inhibitor Talazoparib (FIG. 20)
  host survival, combined with Talazoparib: significantly improved the therapeutic effects of Talazoparib
[2]; with chemotherapy (FIG. 9)
  host survival, combined with chemotherapy: significantly enhanced the effects of chemotherapy
[3]
  expression of LPA/ER stress-induced Il1b, Il6, Ptgs2 and Vegf-α in tumor-associated DCs: decreased the expression

## Cn1ncnc1[C@H]1c2n[nH]c(=O)c3cc(F)cc(c23)N[C@@H]1c1ccc(F)cc1 [Talazoparib]
[4]
  host survival in mice bearing autotaxin-deficient ovarian cancer: significant increase in host survival

## Poly(I:C)
[4]
  host survival in mice bearing autotaxin-deficient ovarian cancer: remarkable increase in survival
[4]; mice bearing control sgRNA ovarian cancer
  host survival, treatment alone: extended host survival
